Measured values published in ChEMBL document CHEMBL3885861, “Open TG-GATES”.

Species: Rattus norvegicus
Experiment: Open TG-GATES - Regimen: Single
Format: toxicity, organism-based, Sprague-Dawley
Parameters: regimen Single, gender Male, age 6 weeks
Details: in vivo, po, 300 mg/kg, route gavage, dose level High; for APTT / Bas / Eos / Fbg / Hb / Ht / Lym / MCH / MCHC / MCV / Mono / Neu / PT / Plat / RBC / Ret / WBC: tissue Blood; for KIDNEY_L / KIDNEY_R / KIDNEY_TOTAL: tissue Kidney; for LIVER: tissue Liver; for A/G / ALP / ALT / AST / BUN / CRE / Ca / Cl / DBIL / GLC / IP / K / LDH / Na / PL / RALB / TBIL / TC / TG / TP / gamma-GTP: tissue Plasma

C[C@]12CCC(=O)C=C1CC[C@@H]1[C@@H]2CC[C@@]2(C)[C@H]1CC[C@]2(C)O [METHYLTESTOSTERONE]
TERMINAL_BW (3 h): 199.1 g
APTT (3 h): 18.1 s
Bas (3 h): 0%
Eos (3 h): 0.8%
Fbg (3 h): 279.8 mg/dL
Hb (3 h): 13.1 g/dL
Ht (3 h): 38.1%
Lym (3 h): 74%
MCH (3 h): 21.3 pg
MCHC (3 h): 34.4%
MCV (3 h): 62.1 fL
Mono (3 h): 3.2%
Neu (3 h): 21.2%
PT (3 h): 12.9 s
Plat (3 h): 116.5 x10_4/uL
RBC (3 h): 614.2 x10_4/ul
Ret (3 h): 8.5%
WBC (3 h): 82.4 x10_2/uL
KIDNEY_L (3 h): 0.9 g
KIDNEY_R (3 h): 0.9 g
KIDNEY_TOTAL (3 h): 1.8 g
LIVER (3 h): 8.5 g
A/G (3 h): 0.9
ALP (3 h): 1496.8 IU/L
ALT (3 h): 40 IU/L
AST (3 h): 74.6 IU/L
BUN (3 h): 10.6 mg/dL
CRE (3 h): 0.2 mg/dL
Ca (3 h): 10.6 mg/dL
Cl (3 h): 105.4 meq/L
DBIL (3 h): 0.012 mg/dL
GLC (3 h): 188.2 mg/dL
IP (3 h): 9.6 mg/dL
K (3 h): 4.3 meq/L
LDH (3 h): 66 IU/L
Na (3 h): 140.8 meq/L
PL (3 h): 135.2 mg/dL
RALB (3 h): 2.5 g/dL
TBIL (3 h): 0.05 mg/dL
TC (3 h): 75 mg/dL
TG (3 h): 41.2 mg/dL
TP (3 h): 5.4 g/dL
gamma-GTP (3 h): 1.2 IU/L
TERMINAL_BW (6 h): 201.8 g
APTT (6 h): 18.2 s
Bas (6 h): 0%
Eos (6 h): 0.8%
Fbg (6 h): 274.8 mg/dL
Hb (6 h): 12.9 g/dL
Ht (6 h): 37.7%
Lym (6 h): 76.4%
MCH (6 h): 21.3 pg
MCHC (6 h): 34.3%
MCV (6 h): 62 fL
Mono (6 h): 3%
Neu (6 h): 19.6%
PT (6 h): 13.4 s
Plat (6 h): 114.3 x10_4/uL
RBC (6 h): 608.4 x10_4/ul
Ret (6 h): 7.9%
WBC (6 h): 66.5 x10_2/uL
KIDNEY_L (6 h): 0.9 g
KIDNEY_R (6 h): 0.9 g
KIDNEY_TOTAL (6 h): 1.7 g
LIVER (6 h): 8.1 g
A/G (6 h): 0.9
ALP (6 h): 1589.4 IU/L
ALT (6 h): 45 IU/L
AST (6 h): 77.2 IU/L
BUN (6 h): 9 mg/dL
CRE (6 h): 0.2 mg/dL
Ca (6 h): 10.6 mg/dL
Cl (6 h): 107.8 meq/L
DBIL (6 h): 0.016 mg/dL
GLC (6 h): 181.8 mg/dL
IP (6 h): 9.6 mg/dL
K (6 h): 4.2 meq/L
LDH (6 h): 67.8 IU/L
Na (6 h): 141.6 meq/L
PL (6 h): 120 mg/dL
RALB (6 h): 2.5 g/dL
TBIL (6 h): 0.054 mg/dL
TC (6 h): 57.8 mg/dL
TG (6 h): 40.8 mg/dL
TP (6 h): 5.4 g/dL
gamma-GTP (6 h): 1.2 IU/L
TERMINAL_BW (9 h): 203.1 g
APTT (9 h): 17.8 s
Bas (9 h): 0%
Eos (9 h): 1%
Fbg (9 h): 269.8 mg/dL
Hb (9 h): 12.7 g/dL
Ht (9 h): 37.2%
Lym (9 h): 74.4%
MCH (9 h): 21.5 pg
MCHC (9 h): 34.1%
MCV (9 h): 62.9 fL
Mono (9 h): 2.8%
Neu (9 h): 21.8%
PT (9 h): 13.7 s
Plat (9 h): 105 x10_4/uL
RBC (9 h): 592.4 x10_4/ul
Ret (9 h): 8.5%
WBC (9 h): 70.7 x10_2/uL
KIDNEY_L (9 h): 0.9 g
KIDNEY_R (9 h): 0.9 g
KIDNEY_TOTAL (9 h): 1.8 g
LIVER (9 h): 8.1 g
A/G (9 h): 0.9
ALP (9 h): 1500.8 IU/L
ALT (9 h): 36.6 IU/L
AST (9 h): 70.6 IU/L
BUN (9 h): 7.8 mg/dL
CRE (9 h): 0.2 mg/dL
Ca (9 h): 10.5 mg/dL
Cl (9 h): 107.6 meq/L
DBIL (9 h): 0.02 mg/dL
GLC (9 h): 182.4 mg/dL
IP (9 h): 10.7 mg/dL
K (9 h): 4.3 meq/L
LDH (9 h): 59 IU/L
Na (9 h): 142.4 meq/L
PL (9 h): 103.2 mg/dL
RALB (9 h): 2.5 g/dL
TBIL (9 h): 0.06 mg/dL
TC (9 h): 46.2 mg/dL
TG (9 h): 49 mg/dL
TP (9 h): 5.3 g/dL
gamma-GTP (9 h): 1 IU/L
TERMINAL_BW (24 h): 203 g
APTT (24 h): 20.8 s
Bas (24 h): 0%
Eos (24 h): 1%
Fbg (24 h): 267.4 mg/dL
Hb (24 h): 13.1 g/dL
Ht (24 h): 37.8%
Lym (24 h): 83%
MCH (24 h): 22 pg
MCHC (24 h): 34.5%
MCV (24 h): 63.7 fL
Mono (24 h): 2.6%
Neu (24 h): 13%
PT (24 h): 13.8 s
Plat (24 h): 116.9 x10_4/uL
RBC (24 h): 593.2 x10_4/ul
Ret (24 h): 7.7%
WBC (24 h): 89.5 x10_2/uL
KIDNEY_L (24 h): 0.9 g
KIDNEY_R (24 h): 0.9 g
KIDNEY_TOTAL (24 h): 1.8 g
LIVER (24 h): 10.2 g
A/G (24 h): 0.9
ALP (24 h): 1864.8 IU/L
ALT (24 h): 48.8 IU/L
AST (24 h): 77.6 IU/L
BUN (24 h): 16.8 mg/dL
CRE (24 h): 0.2 mg/dL
Ca (24 h): 10.9 mg/dL
Cl (24 h): 107.8 meq/L
DBIL (24 h): 0.034 mg/dL
GLC (24 h): 185.2 mg/dL
IP (24 h): 7.6 mg/dL
K (24 h): 4.3 meq/L
LDH (24 h): 71 IU/L
Na (24 h): 142 meq/L
PL (24 h): 126.6 mg/dL
RALB (24 h): 2.6 g/dL
TBIL (24 h): 0.032 mg/dL
TC (24 h): 45.4 mg/dL
TG (24 h): 238 mg/dL
TP (24 h): 5.6 g/dL
gamma-GTP (24 h): 1.2 IU/L
